According to patent US20200290950A1, “ALKAMIDE COMPOUNDS AND USES THEREOF” (NORTH CAROLINA STATE UNIVERSITY, priority 2017, published 2020):

Experiments:
[1] = biological target: cannabinoid type 2 receptor (CB2) (Homo sapiens, UniProt P34972); details: Raduner et al., 2006; cited from earlier work
RAW 264.7 cells = details: LPS-stimulated RAW 264.7 cells, literature; cited from earlier work
RBL-2H3 cells [2] = assay: Fluo-4 calcium assay, RBL-2H3 cells (Example 1); format: cell-based, rat; details: RBL-2H3 cells, 1 μM A23187, microscopy, n=5 fields
Procedure: FIGS. 3A-3H. A15 inhibits calcium influx in RBL-2H3 cells and BMMCs. RBL-2H3 cells (FIGS. 3A-3D) and BMMCs (FIGS. 3E-3H) were plated and incubated overnight prior to treatments. For DNP-BSA treatments, overnight incubation also included 1 μg/mL IgE anti-DNP. Prior to stimulation, cells were washed and loaded with the fluorescent, calcium-sensitive dye fluo-4 AM using the Fluo-4 AM Direct™ Calcium Assay Kit and fluorescence was measured on a microplate reader. Calcium influx was triggered in all experiments using either 1 μM A23187 or 50 ng/mL DNP-BSA, as indicated. Bar graphs represent the means±SEM of the Δ in RFU's at 1 min post-A23187- or DNP-BSA-stimulation from 3 independent experiments (FIGS. 3B, 3D, 3F, 3H). Statistical analysis was performed using a one-way ANOVA with Dunnett's post-hoc test, *p<0.05, **p<0.01, ***p<0.001.
FIG. 9. A15 inhibits calcium influx in RBL-2H3 cells. Prior to stimulation, cells were washed and loaded with the fluorescent, calcium-sensitive dye fluo-4 AM using the Fluo-4 AM Direct™ Calcium Assay Kit. Cells were treated with 100 μM A15 (D, E, F), 0.25% ethanol only (vehicle) (A, B, C), 1 μM A23187 (G, H, I), and 100 μM A15 in combination with 1 μM A23187 (J, K, L) as indicated. Images were acquired at 30, 60, and 120 seconds, post-stimulation. Images are representative of several experiments.
RBL-2H3, BMMC, RAW 264.7, or Jurkat cells were plated in clear-bottom, black, 96-well plates (BioExpress, Kaysville, Utah) and incubated overnight with media only or media containing IgE anti-DNP. Cells were loaded with the calcium-sensitive dye fluo-4 AM using the Fluo-4 Direct™ Calcium Assay Kit (Thermo Fisher Scientific) according to the manufacturer's instructions by incubating at 37° C. for 30 min followed by 30 min at room temperature. Prior to stimulation, baseline fluorescent readings were measured from triplicate wells in 5 s intervals for 1 min using a Synergy HT microplate reader with 485/20 nm excitation and 528/20 nm emission filters. Cells were then treated with either 1 μM A23187 or 50 ng/mL DNP-BSA prepared in calcium- and magnesium-containing or calcium- and magnesium-free HBSS with 20 mM HEPES, and fluorescence was measured in 10 s intervals for 2 min. The final concentration of ethanol was 0.25% in these assays. The average baseline fluorescence of each well was subtracted from the stimulated fluorescent values to calculate the change (Δ) in RFU's and graphed as shown.
Cells loaded with fluo-4 were treated and observed with an Axioskop 2 microscope (Zeiss, Oberkochen, Germany) using a fluorescent illuminator HXP-120 light source and images were acquired at 30, 60, or 120 sec after stimulation with a AxioCam MRc5 camera (Zeiss) and AxioVision software (Zeiss).

RBL-2H3 cells [3] = assay: Calcium assay, Fluo-4 (Example 3); format: cell-based, rat
Procedure: FIGS. 22A-22D. The alkamide fatty acid is necessary for inhibition of calcium influx. RBL-2H3 cells were plated overnight, incubated with Fluo-4 AM for 1 h, stimulated by 1 μM A23187 (FIG. 22A) or 5 ng/mL DNP-BSA (FIG. 22B) in the absence or presence of each alkamide, and fluorescence was read for 2 mins every 5 secs. Data are presented as the mean change in RFU of 4 experiments. Percent inhibition of calcium influx was calculated for A23187 (FIG. 22C) and DNP-BSA (FIG. 22D) stimulated cells at 2 mins. *P<0.05, **P<0.01, and ***P<0.001 one-way ANOVA with Dunnett's post hoc test compared to A15.
RBL-2H3 cells (1.0×10^5 cells) were incubated overnight in a 96 well black-wall clear bottom plate with or without IgE-DNP (0.1 μg/mL) at 37° C. with 5% CO2. The assay was performed using the Fluo-4 Direct™ Calcium Assay Kit according to the manufacturer's instruction. Briefly, cells were incubated with the Fluo-4 Direct calcium reagent loading solution for 30 minutes at 37° C. with 5% CO2 then 30 mins at room temperature. Prior to stimulation, the well baseline fluorescence was measured every 5 seconds over 1 minute using a BioTek Synergy HT microplate reader with 485/20 nm excitation and 528/20 nm emission filters. Cells were stimulated with 1 μM A23187 or 5 ng/mL DNP (IgE-DNP) in the absence or presence of each compound, and the fluorescence was measured every 5 seconds over 2 minutes. The change in fluorescence (ΔRT) was calculated as the sample fluorescence minus the baseline fluorescence for each well.

RBL-2H3 cells [4] = assay: β-Hexosaminidase release assay (Example 3); format: cell-based, rat
Procedure: FIGS. 21A-21D. The inhibition of degranulation is dependent on the length of the alkamide fatty acid chain. RBL-2H3 cells were plated overnight, stimulated with 1 μM A23187 (FIG. 21A) or 5 ng/mL DNP-BSA (FIG. 21B) for 1 h in the absence or presence of each compound. Graphs display the mean percent β-hex release. Data are presented as the mean of 4 experiments. Percent inhibition of degranulation of A23187 (FIG. 21C) or DNP-BSA (FIG. 21D) using data from A and B, respectively. *P<0.05, **P<0.01, ***P<0.001, one-way ANOVA with Dunnett's post hoc test compared to vehicle (A, B) or A15 (C, D).
RBL-2H3 cells (1.0×10^5 cells) were incubated with or without 0.1 μg/mL of IgE-DNP overnight in a 96 well plate at 37° C. with 5% CO2. The cells were washed with Tyrode's buffer and assayed with few modifications (Kuehn, Radinger, & Gilfillan, 2010). Briefly, IgE-DNP sensitized cells were stimulated 1 hour with 5 ng/mL of DNP-BSA in the absence or presence of each compound and incubated at 37° C. with 5% CO2. For experiments using only A23187 as the stimulant, cells were washed with Tyrode's buffer and stimulated 1 hour with 1 μM A23187 in the absence or presence of each compound and incubated at 37° C. with 5% CO2. The stimulated cells were centrifuged at 1200×g for 5 minutes. The supernatant or cell lysate (30 μL) was incubated with 3.4 mg/mL of p-NAG (10 μL) for 1 hour at 37° C. The reaction was terminated by addition of 0.2 M sodium carbonate (pH 10) and the absorbance was read at OD405 nm on a BioTek Synergy HT microplate reader. The total 3-hexosaminidase released from the cell was calculated as the difference between the OD of the supernatant and blank plus the difference between the OD of the lysate and blank. The percent β-hexosaminidase released from the cell was calculated as the difference between the OD of the supernatant and blank divided by the total β-hexosaminidase released from the cell multiplied by 100: ODsupernatant−ODblank/[(ODlysate−ODblank)+(ODsupernatant−ODblank)]*100.

RBL-2H3 cells [5] = assay: TNF-α ELISA, 18 hrs (Example 3); format: cell-based, rat; details: 1 μM A23187, 18 hours
Procedure: FIGS. 25A-25B. […] RBL-2H3 cells were plated overnight and stimulated with 1 μM A23187 in the absence or presence of each alkamide for 18 h. Culture supernatants were analyzed for TNF-α levels by ELISA and experiments were performed in triplicate (FIG. 25A). Percent inhibition of TNF-α secretion for each alkamide listed in FIG. 25B. *P<0.05, **P<0.01, ***P<0.001, one-way ANOVA with Dunnett's post hoc test compared to vehicle (FIG. 25A) or A15 (FIG. 25B).
RBL-2H3 cells (1.0×10^5 cells) were incubated overnight in a 24 well plate at 37° C. with 5% CO2. Cells were washed with 1×PBS and stimulated with 1 μM A23187 for 18 hrs in the absence or presence of each compound. The cells were centrifuged (1200×g, 5 min) and the supernatants were collected. The concentration of TNF-α in the supernatants were determined using the TNF-α ELISA kit.

Chain of cannabinoid type 2 receptor (CB2) (P34972 whole entry, species assumed): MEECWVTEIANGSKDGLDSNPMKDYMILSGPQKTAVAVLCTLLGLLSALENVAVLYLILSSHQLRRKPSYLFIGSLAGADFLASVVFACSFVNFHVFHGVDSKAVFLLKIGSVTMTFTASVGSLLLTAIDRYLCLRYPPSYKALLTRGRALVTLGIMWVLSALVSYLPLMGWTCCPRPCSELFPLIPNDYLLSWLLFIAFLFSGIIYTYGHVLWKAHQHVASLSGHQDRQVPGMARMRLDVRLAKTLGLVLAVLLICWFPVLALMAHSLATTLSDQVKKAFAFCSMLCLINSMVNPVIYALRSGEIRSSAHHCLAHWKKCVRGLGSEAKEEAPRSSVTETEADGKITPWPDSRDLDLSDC

C/C=C\C=C/CC/C=C/C=C/C(=O)NCC(C)C [A11a/b, dodeca-2E,4E,8Z,10Z(E)-tetraenoic acid isobutylamide, reference compound]
binding to CB2 [1]: shown to bind | TNF-α production (RAW 264.7 cells): reduced TNF-α production

CNc1ccc2oc(C[C@H]3O[C@@]4(CC[C@H]3C)O[C@H]([C@H](C)C(=O)c3ccc[nH]3)[C@H](C)C[C@H]4C)nc2c1C(=O)O [A23187, reference compound]
increase in fluorescence (pixel intensity) (RBL-2H3 cells [2]): 158.4%

CCN(CC)CCCCCCCCOC(=O)c1cc(OC)c(OC)c(OC)c1 [TMB-8, 3,4,5-trimethoxybenzoic acid 8-(diethylamino) octyl ester, reference compound]
calcium response (Fluo-4 fluorescence over 2 min) (RBL-2H3 cells [3]; 5 ng/mL DNP-BSA): decreased rate of calcium entering the cytosol | calcium response (Fluo-4 fluorescence over 2 min) (RBL-2H3 cells [3]; 1 μM A23187): decreased rate of calcium entering the cytosol | β-hex release (RBL-2H3 cells [4]; 5 ng/mL DNP-BSA, 1 h): also inhibited | β-hex release (RBL-2H3 cells [4]; 1 μM A23187, 1 h): significantly inhibited β-hex release

CCCCCCCCCCCC(=O)NCC(C)C [YM5-27, N-Isobutyldodecanamide]
percent inhibition of calcium influx (RBL-2H3 cells [3]; 5 ng/mL DNP-BSA, at 2 minutes): 65% | percent inhibition of calcium influx (RBL-2H3 cells [3]; 1 μM A23187, at 2 minutes): 79% | percent inhibition of TNF-α secretion (RBL-2H3 cells [5]): 76% | TNF-α production (RAW 264.7 cells): best inhibitors | percent inhibition of degranulation (RBL-2H3 cells [4]; 5 ng/mL DNP-BSA, 1 hour): 33% | percent inhibition of degranulation (RBL-2H3 cells [4]; 1 μM A23187, 1 hour): 40%

CCCCCC(=O)NCC(C)C [YM5-47, N-Isobutylhexanamide]
percent inhibition of calcium influx (RBL-2H3 cells [3]; 5 ng/mL DNP-BSA, at 2 minutes): 38% | percent inhibition of TNF-α secretion (RBL-2H3 cells [5]): 47% | percent inhibition of degranulation (RBL-2H3 cells [4]; 5 ng/mL DNP-BSA, 1 hour): 36% | percent inhibition of degranulation (RBL-2H3 cells [4]; 1 μM A23187, 1 hour): 51%

CCCCCCCCCC(=O)NCC(C)C [YM8-86, N-Isobutyldecanamide]
percent inhibition of calcium influx (RBL-2H3 cells [3]; 5 ng/mL DNP-BSA, at 2 minutes): 40% | percent inhibition of calcium influx (RBL-2H3 cells [3]; 1 μM A23187, at 2 minutes): 92% | percent inhibition of TNF-α secretion (RBL-2H3 cells [5]): 50% | percent inhibition of degranulation (RBL-2H3 cells [4]; 5 ng/mL DNP-BSA, 1 hour): 46% | percent inhibition of degranulation (RBL-2H3 cells [4]; 1 μM A23187, 1 hour): 59%

CCCC(=O)NCC(C)C [YM8-87, N-Isobutylbutyramide]
rank as inhibitor of calcium influx (RBL-2H3 cells [3]; A23187 and DNP-BSA stimulation): least effective inhibitor of calcium influx | percent inhibition of degranulation (RBL-2H3 cells [4]; 5 ng/mL DNP-BSA, 1 hour): 12% | percent inhibition of degranulation (RBL-2H3 cells [4]; 1 μM A23187, 1 hour): 11%
